Experimental data from patent publication US6479469B2, “Treatment of arthritis and compositions therefore” (priority 2000, dated 2002).
Entries after “also recorded” stand apart in the source; their conditions may differ.

Columns and labels:
[1] = tested on: experimentally induced inflammatory arthritis in Lewis rats; experiment: Streptococcal cell wall induced inflammatory arthritis model, clinical assessment of hind legs; type: in vivo, rat; details: 18 days
Text: The experimental arthritis was induced by injecting cell walls of streptococcal bateria intra-peritoneally into Lewis rats. The resulting arthritis leads to cartilage and bone destruction in the injected rat. This experimental model is considered to provide some of the most useful insights in the development of human inflammatory, destructive arthropathies.
Method: Inflammatory arthritis was induced in Lewis strain rats by a single intra-peritoneal injection of the streptococcal wall pepti-polysaccharide antigen, as described in Brahn E. “Animal models of rheumatoid arthritis. Clues to etiology and treatment.” Clin Orthop. 1991 Apr; (265): 42-53. Review. Van den Broek M F, van Bruggen M C, Simpson S A, Severijnen A J, van de Putte L B, van den Berg W B. “Flare-up reaction of streptococcal cell wall induced arthritis in Lewis and F344 rats: the role of T lymphocytes.” Clin Exp Immunol. 1990 Feb; 79 (2): 297-306. Chen W., Jin W, Cook M, Weiner H L, Wahl S M. “Oral delivery of group A streptococcal cell walls augments circulating TGF-beta and suppresses streptococcal cell wall arthritis.” J Immunol. 1998 Dec. 1; 161 (11): 6297-304. On the same day as the injection, the rats had their drinking water supplemented either with 5 mg or 50 mg of GlcN or GlcNBu in 400 ml of water. There were three rats in each of the above groups. The rats drank the water containing the above compounds in an unrestricted fashion. The drinking water was replenished, when finished, so that the rats drank the same concentrations of the compounds throughout the experimental observation period. Each animal consumed approximately between 20-30 ml of water each day for each of the groups. After 18 days of experimental observation, the rats' hind legs were visually inspected for clinical assessment of the development of arthritis.

[2] = humans, cited from earlier work
[3] = tested on: chondrocytes (BAC); experiment: BAC growth assay (chondrocyte cell proliferation, Coulter count); type: cell-based, bovine; details: for effect on cell growth: 0-6 mM, serum 20%, FIG. 10; for effect on cell growth / effect on the proliferation of chondrocytes: BAC subculture 6; for effect on the proliferation of chondrocytes: 1 mg/ml, glucose 0.5 mg/ml, TGF-β 10 μg/ml, serum 10%, FIG. 8
Method: Cartilage slices were removed aseptically from bovine knee joint and digested with collagenase to obtain single cell chondrocytes. Both primary cultures and subcultures were established by procedures described previously (Chan C. and Anastassiades T., Biochem Cell Biol 74:233-240, 1996; Howard S. and Anastassiades T., J Rheumatol 20:2083-2094, 1993).For the growth assays, cells were seeded at 15,000 cells/well and 33,000 cells/well for the 24 and 6 well plates, respectively, in glucose free Dulbecco's modified Eagle's culture medium, base which was supplemented with glucose (1 mg/ml) and serum (10%). These cells were incubated in a humidified atmosphere of 95% air and 5% carbon dioxide at 37° C. On the following day, the medium was changed to fresh medium containing test materials of interest. The cells were harvested at time intervals and cell number determined using Coulter counter (Coulter Electronics Inc. Florida, USA). Results are expressed as the means of three replicate wells and each well was counted twice. The data are presented as mean ± SEM.
Initial studies examined the effect of 1 mg/ml of GlcN, GlcNac, GlcNpr and GlcNbu on the proliferation of chondrocytes (BAC subculture 6) maintained in medium supplemented with glucose (0.5 mg/ml), TGF-β (10 μg/ml) and serum (10%). […] The cells barely thrive at serum concentrations lower than 10% (data not shown).
Further experiments were carried out to determine whether the growth stimulation could be due to butyrate group or a mechanism solely dependent on GlcNbu. In this case, chondrocytes (BAC subculture 6) were maintained in culture in the presence of glucose (1 mg/ml), serum (20%) and various concentrations (0-6 mM) of sodium butyrate, GlcNbu and GlcN. […] Therefore, the growth stimulation observed is due to GlcNbu. The effect of GlcNbu at varying glucose medium concentrations (0-0.5 mg/ml) were evaluated using early and late subcultured chondrocytes.

[4] = tested on: bovine chondrocytes; details: in vitro; cited from earlier work
[5] = tested on: Bovine Articular Chondrocytes; experiment: Glycosaminoglycan synthesis by Bovine Articular Chondrocytes (35S incorporation); type: cell-based; details: 0.1 mM GlcNBu; 35S label 4 days; per well; control 82,000 CPM; FIG. 14
Method: Bovine articular chondrocytes were grown to confluency in 35 mm wells and labelled with ^35S for 4 days in the presence of different concentrations of GlcNBu. The Glycosaminoglycans (GAG) were isolated from the medium and the radioactivity incorporated into the isolated GAG was determined
With reference to FIG. 14, the results are expressed on a per well basis and represent the means and standard deviations from four replicate wells. […] The control (0 mM concentration of GlcNBu) is the first point on the left indicating 82,000 CPM and the lowest concentration of GlcNBu is 0.1 mM indicating 112,000 CPM.

[6] = tested on: dog with hip dysplasia; experiment: Dog Study-2, dog with hip dysplasia, daily journal and video record; type: in vivo; details: 500 mg per day on food, one week
Method: 1 Week administration to arthritic/dysplastic dogs @ 500 mg set daily dose. Daily Journal and Video record was kept as described under Dog Study-1.
The subject was a 16-year-old female labrador crossbreed which had hip dysplasia evident in both hind limbs due to either age or an injury sustained at the age of 9 years.
Phase 1 The MGD was administered at 500 mg per day for a period of one week in a solution poured onto food.

[7] = tested on: mucopolysaccharides (glycosaminoglycans); details: Biochem. Pharmacol. (1973) 22:3018; cited from earlier work
[8] = tested on: dog with osteoarthritis due to anterior cruciate ligament injury; experiment: Dog Study-1, osteoarthritic dog, daily journal and video record; type: in vivo
Method: 1 Week administration to arthritic/dysplastic dogs @500 mg set daily dose. A Daily Journal and Video record was kept.
The subject was a 9-year-old female collie crossbreed which had osteoarthritis due to a prior left anterior cruciate ligament injury (a previous tear now repaired). […] The animal is currently medicated with glucosamine at 500 mg per day.
For both Phase 1 and Phase 2 a video diary of a few minutes of two or three of the animal's exercise periods and a daily journal of casual observations was kept.

| Molecule | clinical assessment of arthritis in hind legs ([1]; 5 mg in 400 ml drinking water) | clinical assessment of arthritis in hind legs ([1]; 50 mg in 400 ml drinking water) | effect on cell growth ([3]; glucose 1 mg/ml) | effect on the proliferation of chondrocytes [3] | owner-observed mobility / behaviour [6] | further results |
| --- | --- | --- | --- | --- | --- | --- |
| N[C@@H](C=O)[C@@H](O)[C@H](O)[C@H](O)CO [GlcN, 2-amino-2-deoxy-D-glucose, reference compound] | well-developed arthritis with swelling and redness in both of the hind lower legs | well-developed arthritis with swelling and redness in the right lower leg and less so in the left lower leg | decreased cell growth | inhibited cell growth compared to control |  | serum levels after oral or IV administration ([2]; very large doses): serum levels cannot be detected; growth or survival of chondrocytes [4]: does not support growth or even survival of chondrocytes |
| CC(=O)N[C@H]1C(O)O[C@H](CO)[C@@H](O)[C@@H]1O (stereo partly drawn) [GlcNac, N-acetylglucosamine, reference compound] |  |  |  | much reduced effect on cell growth |  | half-life compared to glucosamine ([2]; Clin. Ther. (1996) 18:1184): longer half-life |
| CCCC(=O)N[C@H]1C(O)O[C@H](CO)[C@@H](O)[C@@H]1O (stereo partly drawn) [GlcNbu, N-Butyryl-D-glucosamine (2-n-Butanamido-2-deoxy-D-glucopyranose)] | normal hind lower legs and no clinical evidence of arthritis | minimal swelling in the right lower leg and probably a normal left lower leg | increased cell growth | significantly stimulated cell growth | a period of improvement | radioactivity incorporated into the GAG [5]: 112,000 CPM; cell growth at various serum concentrations ([3]; GlcNbu 0.4-10 mM, glucose 1 mg/ml, 10% vs 20% serum, FIG. 9): more increase in cell growth at 20% than 10% serum; stimulation of cell growth at varying glucose medium concentrations ([3]; glucose 0-0.5 mg/ml, early and late subcultured chondrocytes, FIGS. 11 and 12): higher in the absence of glucose or very low glucose concentration |
| CCC(=O)N[C@H]1C(O)O[C@H](CO)[C@@H](O)[C@@H]1O (stereo partly drawn) [GlcNpr, N-propionylglucosamine] |  |  |  | much reduced effect on cell growth |  | incorporation of labeled glucosamine into mucopolysaccharides [7]: inhibits the incorporation of labeled glucosamine into mucopolysaccharides |
| CCCC(=O)[O-].[Na+] [sodium butyrate, reference compound] |  |  | decreased cell growth |  |  |  |
| N-Butyryl-D-glucosamine (2-n-Butanamido-2-deoxy-D-glucopyranose) [GlcNbu] |  |  |  |  | isolated examples of improvement | tolerability ([8]; 500 mg per day on food, one week): tolerated at least at the same level as glucosamine; adverse reactions ([8]; 500 mg per day, one week): no adverse reactions were observed; protective effects (mobility/stiffness) compared to glucosamine ([8]; Phase 1, 500 mg per day, one week, listed as MGD): at least as good as glucosamine; also recorded: no appreciable difference from baseline; observation after withdrawal ([8]; Phase 2, Day 7 after MGD discontinued, listed as MGD): recurrence of a slight limp; also recorded: much stiffer gait and a slight limp |
